Data: publication PMC9416004, “A Versatile Class of 1,4,4-Trisubstituted Piperidines Block Coronavirus Replication In Vitro” (Pharmaceuticals, 2022)
Read-outs that look alike come from different tables or passages of the source.

Legend:
HCoV-229E = test: Cytopathic effect (CPE) reduction assay with HCoV-229E in HEL cells; type: cell-based, human coronavirus 229E; settings: for EC50: Human coronavirus 229E, 120 h, HCoV-229E-infected HEL cells, five days at 35 °C; for Selectivity Index Microscopy: ratio of MCC to EC50-microscopy; for Selectivity Index Microscopy / Selectivity Index MTS: only values of 10 or higher shown; for Selectivity Index MTS: ratio of CC50 to EC50-MTS
[1] = test system: human embryonic lung (HEL) fibroblast cells; settings: mock-infected HEL cells; microscopically visible alterations in cell morphology
in vitro = settings: human
[2] = protection against virus-induced CPE by MTS cell viability assay, read-out: Antiviral EC50 MTS
[3] = protection against virus-induced CPE by microscopic scoring, read-out: Antiviral EC50 Microscopy

Row | SMILES | EC50 (HCoV-229E; [2]) [µM] | EC50 (HCoV-229E; [3]) [µM] | Cytotoxicity MCC (minimal cytotoxic concentration) [1] [µM] | CC50 (in vitro) [µM] | Selectivity Index Microscopy (HCoV-229E) | Selectivity Index MTS (HCoV-229E)
1 | COC(=O)C[C@H](NC(=O)OCc1ccccc1)C(=O)N(C1CC1)C1(C(=O)NCc2ccccc2)CCN(Cc2ccccc2)CC1 [Compound 37] | > 100 | 3 ± 0.1 | 11 | 3.6 ± 0.1 | – | –
2 | C[C@H](NC(=O)OC(C)(C)C)C(=O)N(Cc1ccc(F)cc1)C1(C(=O)NCc2ccccc2)CCN(Cc2ccccc2)CC1 [Compound 38] | 15 ± 3 | 12 ± 1 | 100 | 48 ± 2 | – | –
3 | CC(C)(C)OC(=O)NCC(=O)N(Cc1ccccc1)C1(C(=O)NCc2ccccc2)CCN(Cc2ccccc2)CC1 [Compound 39] | 15 ± 2 | 11 | 100 | 49 ± 1 | – | –
4 | COC(=O)CC[C@H](NC(=O)OC(C)(C)C)C(=O)N(Cc1ccc(F)cc1)C1(C(=O)NCc2ccccc2)CCN(Cc2ccccc2)CC1 [Compound 40] | 11 ± 4 | 4.8 ± 1.7 | 100 | 50 ± 3 | 21 | –
5 | CC(C)(C)OC(=O)N[C@@H](CC(N)=O)C(=O)N(Cc1ccc(F)cc1)C1(C(=O)NCc2ccccc2)CCN(Cc2ccccc2)CC1 [Compound 41] | 64 ± 8 | 54 ± 4 | >100 | 82 ± 13 | – | –
6 | CC(C)(C)OC(=O)N[C@@H](CC(N)=O)C(=O)N(Cc1ccccc1)C1(C(=O)NCc2ccccc2)CCN(Cc2ccccc2)CC1 [Compound 42] | 16 ± 3 | 13 | 100 | 40 ± 6 | – | –
7 | CC(C)(C)OC(=O)N[C@@H](CC(=O)O)C(=O)N(Cc1ccc(F)cc1)C1(C(=O)NCc2ccccc2)CCN(Cc2ccccc2)CC1 [Compound 43] | > 100 | > 100 | >100 | > 100 | – | –
8 | CC(C)(C)OC(=O)N[C@@H](CC(=O)O)C(=O)N(Cc1ccccc1)C1(C(=O)NCc2ccccc2)CCN(Cc2ccccc2)CC1 [Compound 44] | > 100 | > 100 | >100 | > 100 | – | –
9 | CC(C)(C)OC(=O)N[C@@H](Cc1c[nH]c2ccccc12)C(=O)N(Cc1ccccc1)C1(C(=O)NCc2ccccc2)CCN(Cc2ccccc2)CC1 [Compound 47] | 49 ± 12 | 57 ± 17 | >100 | > 100 | – | –
10 | CC(C)(C)OC(=O)N[C@@H](Cc1ccc(O)cc1)C(=O)N(Cc1ccccc1)C1(C(=O)NCc2ccccc2)CCN(Cc2ccccc2)CC1 [Compound 48] | 9.3 | 11 ± 1 | >100 | > 100 | – | >11
11 | CC(C)(C)OC(=O)N[C@@H](Cc1ccc(F)cc1)C(=O)N(Cc1ccccc1)C1(C(=O)NCc2ccccc2)CCN(Cc2ccccc2)CC1 [Compound 49, Tert-butyl(S)-(1-(benzyl(1-benzyl-4-benzylcarbamoylpiperidin-4-yl)amino)-3-(4-fluorophenyl)-1-oxopropan-2-yl)carbamate] | 8.4 | 10 | ≥100 | > 100 | ≥10 | >12
12 | CC(C)(C)OC(=O)NC(Cc1ccc(Cl)cc1)C(=O)N(Cc1ccccc1)C1(C(=O)NCc2ccccc2)CCN(Cc2ccccc2)CC1 (stereo not drawn) [Compound 50, Tert-butyl(1-(benzyl(1-benzyl-4-benzylcarbamoylpiperidin-4-yl)amino)-3-(4-chlorophenyl)-1-oxopropan-2-yl)carbamate] | 9.7 ± 0.4 | 10 | ≥100 | > 100 | ≥10 | ≥10
13 | COc1ccc(CC(NC(=O)OC(C)(C)C)C(=O)N(Cc2ccccc2)C2(C(=O)NCc3ccccc3)CCN(Cc3ccccc3)CC2)cc1 (stereo not drawn) [Compound 51, Tert-butyl(1-(benzyl(1-benzyl-4-benzylcarbamoylpiperidin-4-yl)amino)-3-(4-methoxyphenyl)-1-oxopropan-2-yl)carbamate] | 4.8 ± 0.4 | 8.2 ± 1.9 | ≥100 | > 100 | ≥12 | –
14 | COC(=O)C[C@H](NC(=O)OCc1ccccc1)C(=O)N(Cc1ccccc1)C1(C(=O)NCc2ccccc2)CCN(CCc2ccccc2)CC1 [Compound 53, Methyl(S)-4-(benzyl(4-benzylcarbamoyl-1-phenethylpiperidin-4-yl)amino)-3-benzyloxycarbonylamino-4-oxobutanoate] | 5.8 ± 1.9 | 6.1 ± 2 | 40 | 24 ± 2 | – | –
15 | COC(=O)C[C@H](NC(=O)OCc1ccccc1)C(=O)N(Cc1ccccc1)C1(C(=O)NCc2ccccc2)CCN(CCc2ccc(C)cc2)CC1 [Compound 54, Methyl(S)-4-(benzyl(4-benzylcarbamoyl-1-(4-methylphenethyl)piperidin-4-yl)amino)-3-benzyloxycarbonylamino-4-oxobutanoate] | 8.4 ± 0.5 | 10 | 40 | 24 ± 2 | – | –
16 | COC(=O)C[C@H](NC(=O)OCc1ccccc1)C(=O)N(Cc1ccccc1)C1(C(=O)NCc2ccccc2)CCN(CCc2ccc([N+](=O)[O-])cc2)CC1 [Compound 55, Methyl(S)-4-(benzyl(4-benzylcarbamoyl-1-(4-nitrophenethyl)piperidin-4-yl)amino)-3-benzyloxycarbonylamino-4-oxobutanoate] | 7.7 ± 0.9 | 10 | 60 | > 100 | – | >13
17 | COC(=O)C[C@H](NC(=O)OCc1ccccc1)C(=O)N(Cc1ccccc1)C1(C(=O)NCc2ccccc2)CCN(CCc2ccc(F)cc2)CC1 [Compound 56, Methyl(S)-4-(benzyl(4-benzylcarbamoyl-1-(4-fluorophenethyl)piperidin-4-yl)amino)-3-benzyloxycarbonylamino-4-oxobutanoate] | 6 ± 1.9 | 7.6 ± 1.8 | 32 | 23 ± 3 | – | –
18 | COC(=O)C[C@H](NC(=O)OCc1ccccc1)C(=O)N(CCNc1ccccc1)C1(C(=O)NCc2ccccc2)CCN(Cc2ccccc2)CC1 [Compound 57, Methyl(S)-4-((1-benzyl-4-benzylcarbamoylpiperidin-4-yl)(2-(phenylamino)ethyl)amino)-3-benzyloxycarbonylamino-4-oxobutanoate] | 7.1 ± 0.9 | 10 | 40 | 51 ± 9 | – | –
19 | COC(=O)C[C@H](NC(=O)OCc1ccccc1)C(=O)N(CCNc1ccccc1)C1(C(=O)NCc2ccccc2)CCN(CCc2ccccc2)CC1 [Compound 58, Methyl(S)-4-((4-benzylcarbamoyl-1-phenethylpiperidin-4-yl)(2-(phenylamino)ethyl)amino)-3-benzyloxycarbonylamino-4-oxobutanoate] | 5.4 ± 1.4 | 7.9 ± 1.9 | 24 | 20 ± 4 | – | –
20 | COC(=O)C[C@H](NC(=O)OCc1ccccc1)C(=O)N(Cc1ccc(C)cc1)C1(C(=O)NCc2ccccc2)CCN(CCc2ccccc2)CC1 [Compound 59, Methyl(S)-4-((4-benzylcarbamoyl-1-phenethylpiperidin-4-yl)(4-methylbenzyl)amino)-3-benzyloxycarbonylamino-4-oxobutanoate] | 5.1 ± 1 | 8.8 ± 0.7 | 16 | 15 ± 5 | – | –
21 | CC(C)(C)OC(=O)NC(Cc1ccccc1)C(=O)N(Cc1ccccc1)C1(C(=O)NCc2ccccc2)CCN(Cc2ccc(Cl)cc2)CC1 (stereo not drawn) [Compound 61, Tert-butyl(1-(benzyl(4-benzylcarbamoyl-1-(4-chlorobenzyl)piperidin-4-yl)amino)-1-oxo-3-phenylpropan-2-yl)carbamate] | 30 ± 7 | 36 ± 9 | >100 | > 100 | – | –
22 | COc1ccc(CN2CCC(C(=O)NCc3ccccc3)(N(Cc3ccccc3)C(=O)C(Cc3ccccc3)NC(=O)OC(C)(C)C)CC2)cc1 (stereo not drawn) [Compound 62, Tert-butyl(1-(benzyl(4-benzylcarbamoyl-1-(4-methoxybenzyl)piperidin-4-yl)amino)-1-oxo-3-phenylpropan-2-yl)carbamate] | 4.3 ± 0.4 | 5.9 ± 1.8 | 40 | 28 | – | –
